Molecules are shown by their SMILES.

Test system in one data set: not listed separately
In words: Partition coefficient, log P of the compound. It is filed as physicochemical. The note with it: octanol/water.
The term logP denotes a log measure of how a compound divides between an organic and an aqueous phase. Low values mean a more hydrophilic compound, high ones a more lipophilic compound. The compound `Cc1ccc(S(=O)(=O)n2cc([C@@]3(O)C[C@H](CI)OC3=O)c3ccccc32)cc1` returned a lipophilicity (logP) of 2.49.
On the same count and under the same terms, the result for `Cc1ccc(S(=O)(=O)n2cc([C@@]3(O)C[C@H](CSC#N)OC3=O)c3ccccc32)cc1` reads 1.78.
On the same count and under the same terms, as for `CCSC[C@H]1C[C@](O)(c2cn(S(=O)(=O)c3ccc(C)cc3)c3ccccc23)C(=O)O1`, the figure is 2.38.

The target in a further data set is T1, Prostaglandin G/H synthase 1 (Ovis aries, UniProt P05979).
T1 sequence (P05979 whole entry): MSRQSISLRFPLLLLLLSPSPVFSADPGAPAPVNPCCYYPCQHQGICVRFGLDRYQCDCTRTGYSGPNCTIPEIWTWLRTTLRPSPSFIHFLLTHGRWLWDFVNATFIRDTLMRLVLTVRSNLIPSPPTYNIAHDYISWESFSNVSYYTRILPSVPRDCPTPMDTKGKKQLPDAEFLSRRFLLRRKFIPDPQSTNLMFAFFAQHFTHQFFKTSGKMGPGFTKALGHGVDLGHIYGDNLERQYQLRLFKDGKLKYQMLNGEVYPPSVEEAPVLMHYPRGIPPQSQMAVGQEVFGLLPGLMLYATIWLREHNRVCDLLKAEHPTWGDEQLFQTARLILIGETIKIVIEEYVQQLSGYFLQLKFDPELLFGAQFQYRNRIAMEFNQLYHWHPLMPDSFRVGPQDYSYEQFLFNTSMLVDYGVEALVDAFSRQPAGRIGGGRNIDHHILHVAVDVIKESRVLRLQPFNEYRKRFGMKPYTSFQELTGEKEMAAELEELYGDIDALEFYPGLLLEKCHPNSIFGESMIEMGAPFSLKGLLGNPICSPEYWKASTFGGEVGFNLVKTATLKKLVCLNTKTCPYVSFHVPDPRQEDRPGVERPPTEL
Conditions: not given
The IC50 is the point on the concentration scale where inhibition reaches its midpoint. Read a high IC50 as a need for much substance. Turning to `Cc1ccc(S(=O)(=O)n2cc([C@@]3(O)C[C@H](CI)OC3=O)c3ccccc32)cc1`, the concentration for half-maximal inhibition (IC50) is above 10 µM.
The same measure, in the same setting: the result for `Cc1ccc(S(=O)(=O)n2cc([C@@]3(O)C[C@H](CSC#N)OC3=O)c3ccccc32)cc1` reads below 10 µM.
On the same count and under the same terms, the result for `CCSC[C@H]1C[C@](O)(c2cn(S(=O)(=O)c3ccc(C)cc3)c3ccccc23)C(=O)O1` reads above 10 µM.

The species named for a further data set is Ovis aries. The data set is described as follows: Selectivity index, Ratio of IC50 for ovine COX2 to IC50 for ovine COX1.
Conditions: not given
Consider `Cc1ccc(S(=O)(=O)n2cc([C@@]3(O)C[C@H](CSC#N)OC3=O)c3ccccc32)cc1`, for which the Ratio IC50 is above 1000.
Regarding `CCSC[C@H]1C[C@](O)(c2cn(S(=O)(=O)c3ccc(C)cc3)c3ccccc23)C(=O)O1`, the Ratio IC50 was below 1000.

For another data set, the target named is T2, Prostaglandin G/H synthase 1 (Ovis aries) (UniProt P05979).
T2 sequence (whole entry): T1 sequence (P05979 whole entry)
The data set is described as follows: Inhibition of ovine COX1 at 10 uM.
Conditions: not given
For orientation: inhibition means the relative decrease from the control value, in per cent. Turning to `Cc1ccc(S(=O)(=O)n2cc([C@@]3(O)C[C@H](CI)OC3=O)c3ccccc32)cc1`, the inhibition came out at 40%.
In turn, `CS(=O)(=O)c1ccc(C2=C(c3ccccc3)C(=O)OC2)cc1` showed an inhibition of 75%.
`Cc1ccc(S(=O)(=O)n2cc([C@@]3(O)C[C@H](CSC#N)OC3=O)c3ccccc32)cc1` displayed an inhibition of 65%.
`CCSC[C@H]1C[C@](O)(c2cn(S(=O)(=O)c3ccc(C)cc3)c3ccccc23)C(=O)O1` yielded an inhibition of 35%.
